Data as given in ChEMBL document CHEMBL1201862, “PubChem BioAssay data set” (2004).
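How tested: cells in 96-well plates exposed to compound for 48 hours at five concentrations. GI50 is the concentration that inhibits growth by half.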 Calls of active or inactive are those of the source. Rule as the data show it: active = GI50 up to about 1.1 µM and inactive = higher.

Legend:
Experiment in all cases: NCI anticancer screen, dose series, 48 h
DU-145 = test system: DU-145
OVCAR-3 = test system: OVCAR-3
EKVX = test system: EKVX
HCT-116 = test system: HCT-116
HT-29 = test system: HT-29
Malme-3M = test system: Malme-3M
SK-MEL-5 = test system: SK-MEL-5
UACC-62 = test system: UACC-62
SNB-19 = test system: SNB-19
NCI-H460 = test system: NCI-H460
NCI/ADR-RES = test system: NCI/ADR-RES
MCF7 = test system: MCF7
HOP-92 = test system: HOP-92
SF-539 = test system: SF-539
LOX IMVI = test system: LOX IMVI
MDA-MB-231 = test system: MDA-MB-231
HCT-15 = test system: HCT-15
UACC-257 = test system: UACC-257
SNB-75 = test system: SNB-75
BT-549 = test system: BT-549

Structure (SMILES)	GI50 (DU-145)	GI50 (OVCAR-3)	GI50 (EKVX)	GI50 (HCT-116)	GI50 (HT-29)	GI50 (Malme-3M)	GI50 (SK-MEL-5)	GI50 (UACC-62)	GI50 (SNB-19)	GI50 (NCI-H460)	GI50 (NCI/ADR-RES)	GI50 (MCF7)	GI50 (HOP-92)	GI50 (SF-539)	GI50 (LOX IMVI)	GI50 (MDA-MB-231)	GI50 (HCT-15)	GI50 (UACC-257)	GI50 (SNB-75)	GI50 (BT-549)
Clc1ccc(/C=C/c2nc(Cl)c(-c3ccc(Cl)cc3)c(Cl)n2)cc1	76.4 µM (inactive)	> 100 µM (inactive)	69.8 µM (inactive)	46.8 µM (inactive)	48.9 µM (inactive)	> 100 µM (inactive)	38.8 µM (inactive)	> 100 µM (inactive)	> 100 µM (inactive)	61 µM (inactive)	68.2 µM (inactive)	45.5 µM (inactive)	> 100 µM (inactive)	57.7 µM (inactive)	86.9 µM (inactive)	67 µM (inactive)	> 100 µM	39.3 µM (inactive)	19.3 µM (inactive)	> 100 µM (inactive)
CCC(c1ccccc1)c1cc(C(C)(C)C)cc(C(C)(C)C)c1O (stereo not given)	19.1 µM (inactive)	14.2 µM (inactive)	17.8 µM (inactive)	12.9 µM (inactive)	14.9 µM (inactive)	13.9 µM (inactive)	18.1 µM (inactive)	18 µM (inactive)	18.3 µM (inactive)	17.5 µM (inactive)	15.4 µM (inactive)	20.1 µM (inactive)	16.5 µM (inactive)	17.4 µM (inactive)	18 µM (inactive)	18.1 µM (inactive)	16.8 µM	15.2 µM (inactive)	14.2 µM (inactive)	19.3 µM (inactive)
COc1ccc(/C=C(\C(=C/c2ccc(OC)cc2)[N+](=O)[O-])[N+](=O)[O-])cc1	12.1 µM (inactive)	12.8 µM (inactive)	8.71 µM (inactive)	10.2 µM (inactive)	3.39 µM (inactive)	3.34 µM (inactive)	4.07 µM (inactive)	2.91 µM (inactive)	10.1 µM (inactive)	5.64 µM (inactive)	1.93 µM (inactive)	6.31 µM (inactive)	3.84 µM (inactive)	2.24 µM (inactive)	2.05 µM (inactive)	2.07 µM (inactive)	2.55 µM	5.22 µM (inactive)	26.1 µM (inactive)	6.1 µM (inactive)
COCn1cnc2c(=O)n(-c3ccc(C)cc3)c(=S)n(-c3ccc(C)cc3)c21	> 100 µM (inactive)	> 100 µM (inactive)	> 100 µM (inactive)	> 100 µM (inactive)	> 100 µM (inactive)	> 100 µM (inactive)	> 100 µM (inactive)	> 100 µM (inactive)	> 100 µM (inactive)	> 100 µM (inactive)	> 100 µM (inactive)	> 100 µM (inactive)	71.8 µM (inactive)	> 100 µM (inactive)	> 100 µM (inactive)	> 100 µM (inactive)	> 100 µM	> 100 µM (inactive)	6.98 µM (inactive)	> 100 µM (inactive)
CSc1c(C#N)c(N)nc2c(/N=N\c3ccc(Br)cc3)c(N)nn12	6.14 µM (inactive)	2.95 µM (inactive)	7.78 µM (inactive)	6.34 µM (inactive)	9.53 µM (inactive)	8.69 µM (inactive)	18.1 µM (inactive)	7.26 µM (inactive)	28.4 µM (inactive)	12.8 µM (inactive)	17.7 µM (inactive)	3.16 µM (inactive)	6.81 µM (inactive)	9.18 µM (inactive)	1.96 µM (inactive)	6.97 µM (inactive)	3.5 µM	8.05 µM (inactive)	10.6 µM (inactive)	12.4 µM (inactive)
CCN1CN(c2ccccc2)C2(CCN(CC(CC3OCCO3)c3ccc(F)cc3)CC2)C1=O (stereo not given)	4.2 µM (inactive)	18.8 µM (inactive)	6.7 µM (inactive)	3.36 µM (inactive)	1.34 µM (inactive)	19.7 µM (inactive)	4.07 µM (inactive)	18.1 µM (inactive)	20.6 µM (inactive)	14.7 µM (inactive)	10.5 µM (inactive)	2.26 µM (inactive)	2.13 µM (inactive)	9.53 µM (inactive)	7.43 µM (inactive)	16.1 µM (inactive)	16.3 µM	2.79 µM (inactive)	35.2 µM (inactive)	21.6 µM (inactive)
COc1ccccc1-c1cc(=O)c2ccc(OC)c(OC)c2o1	55.5 µM (inactive)	31.6 µM (inactive)	58.7 µM (inactive)	45.9 µM (inactive)	34.3 µM (inactive)	92.5 µM (inactive)	27.7 µM (inactive)	51.5 µM (inactive)	82.2 µM (inactive)	49.5 µM (inactive)	26.4 µM (inactive)	45.9 µM (inactive)	28.2 µM (inactive)	> 100 µM (inactive)	33.1 µM (inactive)	> 100 µM (inactive)	41.4 µM	44.9 µM (inactive)	70.5 µM (inactive)	76.9 µM (inactive)
